This note sets out measurements from ChEMBL document CHEMBL3232922, “Discovery and SAR of 6-alkyl-2,4-diaminopyrimidines as histamine H₄ receptor antagonists” (J Med Chem, 2014).

The target of test [1] is T1, Histamine H4 receptor (Homo sapiens, UniProt Q9H3N8). In words: Displacement of [3H]histamine from human recombinant histamine H4 receptor expressed in SK-N-MC cells after 45 mins by competition binding analysis. The class given is cell-based.
Test [2] has as its target T1, Histamine H4 receptor. In words: Agonist activity at human H4 receptor. The conditions noted are these: read-out: EC50.
Test [3] deals with T1, Histamine H4 receptor. As to the kind of experiment: Antagonist activity at human histamine H4 receptor expressed in SK-N-MC cells assessed as reduction of histamine-induced inhibition of cAMP-mediated beta-galactosidase reporter gene activity treated 10 mins prior to histamine challenge by microplate reader analysis. The conditions noted are these: read-out: pA2 (converted). The class given is functional, cell-based. (In general: A reporter such as luciferase makes a cellular process visible.)

A value given as a limit tells only on which side of the number the result lay.

T1 sequence (Q9H3N8 whole entry): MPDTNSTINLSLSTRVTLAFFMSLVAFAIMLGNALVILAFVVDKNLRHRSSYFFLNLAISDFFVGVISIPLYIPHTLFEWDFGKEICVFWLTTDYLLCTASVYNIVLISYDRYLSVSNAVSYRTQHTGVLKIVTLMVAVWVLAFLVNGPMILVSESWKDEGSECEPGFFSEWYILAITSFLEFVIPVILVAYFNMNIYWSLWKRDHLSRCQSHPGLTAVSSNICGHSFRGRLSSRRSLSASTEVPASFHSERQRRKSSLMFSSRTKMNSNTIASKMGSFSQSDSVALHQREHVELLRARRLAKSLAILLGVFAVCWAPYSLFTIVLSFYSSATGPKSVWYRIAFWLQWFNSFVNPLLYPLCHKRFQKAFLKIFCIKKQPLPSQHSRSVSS

For the molecule `CN[C@@H]1CCN(c2cc(C34CC5CC(CC(C5)C3)C4)nc(N)n2)C1`, at Histamine H4 receptor [1], the Ki – broadly, the equilibrium dissociation constant of an inhibitor or competing ligand from its target – was found to be 1.7 nM. Moreover, the concentration for a half-maximal effect (EC50) (commonly the concentration needed to bring the measured effect to its halfway point) on Histamine H4 receptor [2] was above 10000 nM. Also, the Kb on Histamine H4 receptor [3] was below 0.1 nM. For `Nc1nc(C2CCCC2)cc(N2C[C@H]3CNC[C@H]3C2)n1`, the Ki on Histamine H4 receptor [1] was 328 nM. `Nc1nc(C2CCCC2)cc(N2C[C@H]3CCN[C@H]3C2)n1`: the Ki on Histamine H4 receptor [1] was determined as 2.9 nM. Moreover, the EC50 at Histamine H4 receptor [2] was above 10000 nM. Moreover, the Kb at Histamine H4 receptor [3] was 0.1 nM. For the molecule `CN[C@@H]1CCN(c2nc(N)nc3c2CCCC3)C1`, the EC50 on Histamine H4 receptor [2] is above 10000 nM. For the same molecule, the Kb at Histamine H4 receptor [3] was 25.1 nM. As for `CN1CCN(c2ncnc3c2oc2ccc(Cl)cc23)CC1`, the Ki on Histamine H4 receptor [1] stood at 5 nM. On the same count and under the same terms, next, `CN1CCN(C(=O)c2nc3c([nH]2)CCCC3)CC1`: 39 nM. For the molecule `Nc1nc(C2CCCC2)cc(N2CC(N)C2)n1`, the inhibition constant (Ki) on Histamine H4 receptor [1] worked out at 5.5 nM. Moreover, the EC50 on Histamine H4 receptor [2] came out at 1300 nM. Further, the Kb at Histamine H4 receptor [3] was 25.1 nM. Take `CN[C@@H]1CCN(c2cc(Cl)nc(N)n2)C1`: on Histamine H4 receptor [1], the Ki was above 10000 nM. Regarding `Nc1nc(C2CCCC2)cc(N2CCC3(CCCN3)C2)n1` (stereo unspecified), on Histamine H4 receptor [1], the inhibition constant (Ki) is 11.2 nM. On Histamine H4 receptor [2], the EC50 was above 10000 nM. Besides, the Kb on Histamine H4 receptor [3] was 2.51 nM. The like results for `CCCCc1cc(N2CC[C@@H](NC)C2)nc(N)n1` were, in that order, 1.5 nM, above 10000 nM and 3.98 nM. As for `CN[C@@H]1CCN(c2nc(N)nc3c2oc2ncc(Cl)cc23)C1`, at Histamine H4 receptor [1], the inhibitory constant (Ki) is 9 nM. Still for that read-out and setting: the figure for `CN1CCN(C(=O)c2cc3c([nH]2)CCCC3)CC1` is 20 nM. Regarding `CN1CCN(c2cc(C3CCCC3)nc(N)n2)CC1`, the inhibition constant Ki on Histamine H4 receptor [1] is 1.4 nM. For the same molecule, the EC50 on Histamine H4 receptor [2] is above 10000 nM. The Kb at Histamine H4 receptor [3] was 0.126 nM. As for `CN[C@H]1CCN(c2cc(C3CCCC3)nc(N)n2)C1`, the inhibition constant Ki on Histamine H4 receptor [1] stood at 25 nM. Further, at Histamine H4 receptor [2], the concentration for a half-maximal effect (EC50) was above 10000 nM.

On to `Cc1cnc(OCCCCC2CCN(C)CC2)cc1-c1nc2c(C)c(F)ccc2[nH]1`, for which, at Histamine H4 receptor [1], the inhibition constant Ki was found to be 5 nM. As for `CN[C@@H]1CCN(c2cc(C3CC3)nc(N)n2)C1`, on Histamine H4 receptor [2], the EC50 is above 10000 nM. Besides, the Kb at Histamine H4 receptor [3] was 7.94 nM.
